A short description of data set [1]: Cytotoxicity, CellTiter-Blue cell viability assay. Format: cell-based. As to conditions: human. How it is done:
(§1) Peptide cytotoxicity was determined using the CellTiter-Blue® cell viability assay, following a described protocol. Briefly, all cell lines were carefully harvested with trypsin–EDTA and seeded 10.000–20.000 cells/100 μL into 96-well clear flat-bottomed polystyrene plates (Corning, USA) for 24 h. After medium removal, cells were washed twice with 1X PBS, and 100 µL of previously diluted peptides (range from 0.05–100.0 µM) in the respective medium were added to cells. Then, after 24 h, cells were washed twice with 1X PBS and 20 µL of CellTiter-Blue® Reagent (diluted in 100 µL of medium) was added to each well and incubated for 3 h in culturing conditions. The fluorescence intensity was measured using Varioskan™ LUX multimode microplate reader.
(§2) IC50 values were determined using GraphPad Prism 7.0 software using a log(inhibitor) versus normalized response. Experiments were performed in triplicates on different days using three independently grown cell cultures.
For orientation: The colour change of resazurin is a common sign of viable cells or microbes.

A short description of data set [2]: Cytotoxicity, CellTiter-Blue cell viability assay. It counts as cell-based. As to conditions: human. How it is done:
as §1, §2
The source holds these as a separate data set.

The nature of data set [3]: Cytotoxicity, CellTiter-Blue cell viability assay. Format: cell-based. The following applies: human. As for the experimental part:
as §1, §2
The source holds these as a separate data set.

Data set [4] in a line: Cytotoxicity, CellTiter-Blue cell viability assay. Format: cell-based. As to conditions: human. As for the experimental part: as §1, §2
The source holds these as a separate data set.

Data set [5] is described as follows: Cytotoxicity, CellTiter-Blue cell viability assay. Format: cell-based. The following applies: human. As for the experimental part: as §1, §2
This is another data set of the same source.

A short description of data set [6]: Biodistribution of 67Ga-radiolabeled peptides. Further details: species or system mouse. As to conditions: female, in vivo, iv, 100 uCi, total radioactivity, mean ± SD, n = 3; for tissue uptake at 1 h / tissue uptake at 2 min: CD1, mouse, i.v. tail vein; for tissue uptake at 2 min: 2 min post injection. As for the experimental part:
All animal experiments were performed in compliance with national and EU legislation for good practices on laboratory animal science. The animals were housed in a temperature and humidity-controlled environment with a 12 h light/12 h dark schedule. Biodistribution of radiolabeled peptides was performed on 7 weeks old CD1 female mice.
Animals were intravenously injected into the tail vein with 100 µL of a 25 µM saline solution of the ^67Ga-peptide with a radioactivity around 100 µCi. The mice were euthanized by cervical dislocation at 2 min and 1 h after injection. The dose administered and the radioactivity in the euthanized animals was measured using a dose calibrator (Carpintec CRC-15W, Ramsey, USA). The difference between the radioactivity in the injected and the euthanized animals was assumed to be due to excretion. Brain and tissues of interest without previous perfusion were dissected, washed, and weighed, and their radioactivity was measured using a γ counter (Hidex AMG, Hidex, Turku, Finland). The uptake in the brain and tissues of interest was calculated and expressed as a percentage of injected radioactivity dose per gram of tissue (% ID/g).

A short description of data set [7]: Analytical RP-HPLC retention time (used as indication of hydrophobicity). Format: physicochemical.
Setting [8] is: analytical reverse phase HPLC, UV chromatogram, free and CF-labelled peptides.

Read-outs that look alike come from different tables or passages of the source. Residues, ends and D or L forms follow the SMILES beside them. No end group written: not given here. *: point of attachment. NODAGA = O=C(O)CN1CCN(CC(=O)O)CCN(C(CCC(=O)*)C(=O)O)CC1; CF = 5(6)-carboxyfluorescein Some results are limits rather than exact numbers.

What is called IC50 is the concentration that gives 50% inhibition. Turning to HIQLSPFSQSWR-NH2 [BBBpS_5], the half-inhibitory concentration (IC50) at 24 h in data set [1], in data set [2], in data set [3], in data set [4] and in data set [5] was greater than 100 µM throughout.

Regarding KYKGAIIGNIK-NH2 [BBBpS_1], the half-inhibitory concentration (IC50) at 24 h in data set [1], in data set [2], in data set [3], in data set [4] and in data set [5] was greater than 100 µM throughout.

With APWHLSSQYSRT-NH2 [BBBpS_4], the half-inhibitory concentration (IC50) at 24 h in data set [1], in data set [2], in data set [3], in data set [4] and in data set [5] was greater than 100 µM each time.

Consider LKTLTETLKELTKTLTEL-NH2 [BBBpS_7], for which the 50% inhibitory concentration (IC50) at 24 h in data set [1], in data set [2], in data set [3], in data set [4] and in data set [5] was greater than 100 µM throughout.

With `CC[C@H](C)[C@H](NC(=O)CNC(=O)[C@H](CCCNC(=N)N)NC(=O)[C@H](Cc1ccc(O)cc1)NC(=O)[C@H](CS)NC(=O)[C@@H](NC(=O)[C@H](CCCNC(=N)N)NC(=O)[C@H](Cc1ccccc1)NC(=O)[C@H](CS)NC(=O)[C@H](Cc1c[nH]c2ccccc12)NC(=O)[C@H](CCCCN)NC(=O)CCC(C(=O)O)N1CCN(CC(=O)O)CCN(CC(=O)O)CC1)C(C)C)C(=O)N[C@@H](CS)C(=O)N[C@@H](Cc1ccc(O)cc1)C(=O)N[C@@H](CCCNC(=N)N)C(=O)N[C@@H](CCCNC(=N)N)C(=O)N[C@@H](CS)C(=O)N[C@@H](CCCNC(=N)N)C(N)=O` (some centres unmarked) [67Ga-non-BBBpS_2, metal not drawn] ({NODAGA}-KWCFRVCYRGICYRRCR-NH2), the tissue uptake at 1 h in data set [6] (blood, 1 h post injection, CD1 female mice, 100 µL of 25 µM 67Ga-peptide, γ counter, read-out: Tissue distribution, Blood) came to 0.9 ± 0.6 %ID/g; in data set [6] (bone, 1 h post injection, CD1 mice, read-out: Tissue distribution, Bone) it was 1.6 ± 0.1 %ID/g; in data set [6] (brain without perfusion, 1 h post injection, CD1 female mice, γ counter, read-out: Tissue distribution, Brain (brain uptake)) it was 0.13 ± 0.03 %ID/g; in data set [6] (heart, 1 h post injection, CD1 mice, read-out: Tissue distribution, Heart), 1.7 ± 0.1 %ID/g; in data set [6] (intestine, 1 h post injection, CD1 mice, read-out: Tissue distribution, Intestine), 1.6 ± 0.5 %ID/g; in data set [6] (kidney, 1 h post injection, CD1 mice, read-out: Tissue distribution, Kidney), 5.4 ± 0.8 %ID/g. The tissue uptake at 1 h in data set [6] (liver, 1 h post injection, CD1 mice, read-out: Tissue distribution, Liver) came out at 22.8 ± 10.1 %ID/g; in data set [6] (lung, 1 h post injection, CD1 mice, read-out: Tissue distribution, Lung), 2.4 ± 0.7 %ID/g; in data set [6] (muscle, 1 h post injection, CD1 mice, read-out: Tissue distribution, Muscle), 1.2 ± 0.4 %ID/g; in data set [6] (spleen, 1 h post injection, CD1 mice, read-out: Tissue distribution, Spleen), 3.7 ± 1.8 %ID/g; in data set [6] (stomach, 1 h post injection, CD1 mice, read-out: Tissue distribution, Stomach) it was 1.7 ± 0.6 %ID/g. The tissue uptake at 2 min in data set [6] (bone, CD1 mice, read-out: Tissue distribution, Bone) was determined as 3.7 ± 0.5 %ID/g; in data set [6] (heart, CD1 mice, read-out: Tissue distribution, Heart), 6 ± 0.8 %ID/g; in data set [6] (intestine, CD1 mice, read-out: Tissue distribution, Intestine) it was 2.7 ± 0.7 %ID/g; in data set [6] (kidney, CD1 mice, read-out: Tissue distribution, Kidney) it was 19.9 ± 0.4 %ID/g; in data set [6] (liver, CD1 mice, read-out: Tissue distribution, Liver), 19.8 ± 0.7 %ID/g; in data set [6] (lung, CD1 mice, read-out: Tissue distribution, Lung) it was 7.6 ± 1.5 %ID/g. Further, the tissue uptake at 2 min in data set [6] (muscle, CD1 mice, read-out: Tissue distribution, Muscle) is 1.8 ± 0.5 %ID/g; in data set [6] (spleen, CD1 mice, read-out: Tissue distribution, Spleen), 5.6 ± 0.4 %ID/g; in data set [6] (stomach, CD1 mice, read-out: Tissue distribution, Stomach), 2.1 ± 0.6 %ID/g. Besides, in data set [6] (mouse, 1 h post injection, difference between radioactivity injected and in the euthanized animal, CD1 mice), the excretion (% injected dose) was 13.5 ± 5.1 %ID. Moreover, the “HPLC tR” value in data set [7] (separate analytical RP-HPLC coupled to a γ-detector, 67Ga-NODA-GA labelled peptides) was 12.99 min.

In the case of NRPDSAQFWLHH-NH2 [BBBpS_9], the IC50 at 24 h in data set [1], in data set [2], in data set [3], in data set [4] and in data set [5] was greater than 100 µM in each case.

YKEATSTFTNITYRGT-NH2 [BBBpS_8]: the IC50 at 24 h in data set [1], in data set [2], in data set [3], in data set [4] and in data set [5] was greater than 100 µM in each case.

In the case of `CSCC[C@H](NC(=O)[C@H](CC(C)C)NC(=O)CNC(=O)[C@H](Cc1ccccc1)NC(=O)[C@H](Cc1ccccc1)NC(=O)[C@H](CCC(N)=O)NC(=O)[C@H](CCC(N)=O)NC(=O)[C@@H]1CCCN1C(=O)[C@H](CCCCN)NC(=O)[C@@H]1CCCN1C(=O)[C@@H](N)CCCN=C(N)N)C(N)=O` [BBBpS_10], the IC50 at 24 h in data set [1], in data set [2], in data set [3], in data set [4] and in data set [5] was greater than 100 µM each time.

As for KYRSGAITIGY-NH2 [BBBpS_2], the IC50 at 24 h in data set [1], in data set [2], in data set [3], in data set [4] and in data set [5] was greater than 100 µM throughout.

In the case of YDEEGGGE-NH2 [non-BBBpS_3], the IC50 at 24 h in data set [1], in data set [2], in data set [3], in data set [4] and in data set [5] was greater than 100 µM each time.

As to YTQDFNKFHTFPQTAIGVGAP-NH2 [BBBpS_6], the IC50 at 24 h in data set [1], in data set [2], in data set [3], in data set [4] and in data set [5] was greater than 100 µM each time.

Regarding “CF-YDEEGGGE-amide [CF-YDEGE, 5(6)-carboxyfluorescein-labelled YDEGE]”, the “HPLC tR” value in data set [7] (setting [8]) amounted to 7.89 min.

As to “CF-KWCFRVCYRGICYRRCR-amide [CF-TI, 5(6)-carboxyfluorescein-labelled TI]”, the “HPLC tR” value in data set [7] (setting [8]) amounted to 8.11 min.

“CF-HIQLSPFSQSWR-amide [CF-HAP-2, 5(6)-carboxyfluorescein-labelled HAP-2]”: the “HPLC tR” value in data set [7] (setting [8]) came to 9.50 min.

With “CF-APWHLSSQYSRT-amide ({CF}-APWHLSSQYSRT-NH2) [CF-CTP, 5(6)-carboxyfluorescein-labelled CTP]”, the “HPLC tR” value in data set [7] (setting [8]) is listed as 8.45 min.

Consider “CF-KYRSGAITIGY-amide [CF-B, 5(6)-carboxyfluorescein-labelled B]”, for which the “HPLC tR” value in data set [7] (setting [8]) was 7.62 min.

(Values after article PMC11131246, “Molecular determinants for brain targeting by peptides: a meta-analysis approach with experimental validation” (Fluids and Barriers of the CNS, 2024).)
